Data reported in US10111847B2, “Compounds and methods for modulating vascular injury” (The Regents of the University of California, priority 2012, dated 2018).

Assays:
Type in all cases: cell-based, human
[1] = tested on: ICAM-1; assay: TNF-α-stimulated ICAM-1 gene expression in VSMC by qRT-PCR; conditions: 100 nM; TNF-α 10 ng/ml 18 hours; P<0.01
Protocol: (§1) Cells are plated onto 6-well plates at 100% confluency in DMEM plus 10% FBS and allowed to attached overnight. Cells are then made quiescent by placing in serum-free media for 48-72 hours prior to start of experiments. Cells are treated with or without RvD1 or RvD2 at the indicated concentrations for one hour followed by co-incubation with cytokine (TNF-α 10 ng/ml) for up to 18 hours. In a separate set of experiments to examine the role of G-protein receptors, VSMCs are exposed to TNF-α and RvD2 (10 nM) as described above, in the presence or absence of pertussis toxin (PTX 100 ng/ml). Total RNA from rabbit sample or cells is isolated with PureLink RNA Mini kit (Ambion Life Technologies, Carlsbad, Calif.) with RNase-free DNase treatment according to manufacturer's protocol. One microgram of total RNA (from either VSMC or rabbit tissue) is used to generate cDNA using High Capacity cDNA Reverse Transcription Kit (Applied Biosystems, Foster City, Calif.) for subsequent RT-PCR reactions. Sybrgreen Amplified DNA is detected by incorporation SYBR Green (Qiagen, Germantown, Md.). Dissociation curve analyses are performed to confirm the specificity of the SYBR Green signal. Data is normalized to at least two reference genes. […]
(§2) FIG. 2: RvD1 and RvD2 reduce pro-inflammatory gene expression in VSMC. […] Expression of the cell adhesion molecules VCAM-1 (A) and ICAM-1 (B) was measured by qRT-PCR. […]

[2] = tested on: VSMC; assay: VSMC proliferation assay (Alamar Blue) in 10% serum; conditions: 100 nM; standard growth medium (10% serum); P<0.01
Source text: Primary cultures of human greater saphenous vein smooth muscle cells (hVSMC) are isolated from saphenous vein discarded at the time of bypass operation in an Institutional Review Board-approved protocol as described by Conte et al. “Regulation of vein graft hyperplasia by survivin, an inhibitor of apoptosis protein.” Arterioscler Thromb Vasc Biol. 2005; 25:2081-2087. VSMCs are maintained in Dulbecco's modified Eagle's medium (DMEM Low Glucose) (HyClone Laboratories Inc, Logan, Utah) containing 10% fetal bovine serum (FBS) (Invitrogen Life Technologies, Grand Island, N.Y.) and used between passages 2-5. […]
Cell proliferation assay is performed as described by Conte et al. Arterioscler Thromb Vasc Biol. 2005; 25:2081-2087. […] Fluorescence measurements (excitation 506 nm, emission 590 nm) are made on media aliquots; a standard curve is generated by correlating emission intensity with viable cell counts using Trypan Blue exclusion.
(§3) FIG. 1: RvD1 and RvD2 attenuate cell adhesion, proliferation, and migration responses of human VSMC in-vitro. […] Results are shown as relative percent inhibition, expressed as a percentage of the maximal adhesion for the agonist (n=6, results are mean±SEM, **P<0.01, *P<0.05, unpaired t-test). […] Results are expressed as percentage change in migration from unstimulated control (no PDGF). […]

[3] = tested on: IL-1β-stimulated VSMC; assay: Static monocyte (U937) adhesion assay, IL-1β-stimulated VSMC (RvD); conditions: IL-1β 1 nM 4 hours; 0.01-100 nM
Source text: (§4) Primary cultures of human greater saphenous vein smooth muscle cells (hVSMC) are isolated from saphenous vein discarded at the time of bypass operation in an Institutional Review Board-approved protocol as described by Conte et al. “Regulation of vein graft hyperplasia by survivin, an inhibitor of apoptosis protein.” Arterioscler Thromb Vasc Biol. 2005; 25:2081-2087. VSMCs are maintained in Dulbecco's modified Eagle's medium (DMEM Low Glucose) (HyClone Laboratories Inc, Logan, Utah) containing 10% fetal bovine serum (FBS) (Invitrogen Life Technologies, Grand Island, N.Y.) and used between passages 2-5. Endothelial cells were maintained in Medium 199 supplemented with EBSS (Hyclone Laboratories, Logan, Utah, USA) and Endothelial Cell Growth Supplement. Cells between passages 3-8 were used for the experiments.
(§5) RvD. […] Fluorescence measurements (excitation 494 nm, emission 517 nm) of bound monocytes are made with plate reader (Spectra Max M2, Molecular Devices, LLC, Sunnyvale, Calif.).
FIG. 6: RvD1 and RvD2 modulate cell adhesion response of human VSMC to IL-1β. […] Results are shown as relative percent inhibition, expressed as a percentage of the maximal adhesion for the agonist (n=6, results are mean±SEM, **P<0.01, *P<0.05, unpaired t-test).

[4] = tested on: VCAM-1; assay: TNF-α-stimulated VCAM-1 gene expression in VSMC by qRT-PCR; conditions: 100 nM; TNF-α 10 ng/ml 18 hours; P<0.01
Protocol: as §1, §2

[5] = tested on: TNF-α-stimulated VSMC; assay: Static monocyte (U937) adhesion assay, TNF-α-stimulated VSMC (RvD); conditions: U937 monocytes; TNF-α 10 ng/ml 4 hours; peak inhibition at 10 nM
Source text: as §4, §5, §3

SMILES	ICAM-1 expression, maximum % reduction [1] [%]	inhibition of VSMC proliferation, maximum effect [2] [%]	inhibition of monocyte adhesion (U937) to IL-1β-stimulated VSMC [3]	VCAM-1 expression, maximum % reduction [4] [%]	maximum % inhibition of monocyte adhesion [5] [%]
CC/C=C\C[C@H](O)/C=C/C=C\C=C\C=C\[C@@H](O)[C@@H](O)C/C=C\CCC(=O)O [RvD1, Resolvin D1]	63	59	dose-dependent inhibition	69	36
CC/C=C\C[C@H](O)[C@H](O)/C=C/C=C/C=C\C=C\[C@@H](O)C/C=C\CCC(=O)O [RvD2, resolvin D2]	70	63	dose-dependent inhibition	76	41
